The values that follow come from ChEMBL document CHEMBL5528001, “Synthetic product-based approach toward potential antileishmanial drug development” (Eur J Med Chem, 2024).

Converted amounts (≈) assume the structure as drawn.

In one series the test system is Leishmania aethiopica. Briefly: Antileishmanial activity against Leishmania aethiopica amastigotes assessed as inhibition of parasite growth measured after 24 hrs by Alamar blue based analysis. In kind it is functional, organism-based.
The subject of series [1] is Leishmania donovani. The series is described as follows: Antileishmanial activity against Leishmania donovani MHOM/IN/00/DEVI assessed as inhibition of parasite growth measured for 48 hrs by MTT assay. The series is classed as functional, organism-based.
For series [2], the system named is HepG2. The series is described as follows: Cytotoxicity against human HepG2 cells assessed as reduction in cell growth measured after 48 hrs by SRB assay. The series is classed as functional.
In a further series the test system is Leishmania mexicana. The series is described as follows: Antileishmanial activity against Leishmania mexicana promastigotes. In kind it is functional, organism-based.
The subject of another series is Leishmania braziliensis. Briefly: Antileishmanial activity against Leishmania braziliensis promastigotes. The series is classed as functional, organism-based.
The nature of series [3]: Cytotoxicity against African green monkey Vero cells assessed as reduction in cell growth. The series is classed as toxicity, cell-based, Chlorocebus sabaeus.
Series [4] relates to Leishmania infantum. The series is described as follows: Antileishmanial activity against Leishmania infantum MHOM/BR/1972/BH46 promastigotes assessed as reduction in parasite viability measured for 48 hrs by PI staining based flow cytometry analysis. Particulars: MHOM/BR/1972/BH46, 48 h. In kind it is functional, organism-based. (In flow cytometry, cells or beads pass a laser one at a time.)

Series [5] concerns Leishmania infantum. Briefly: Antileishmanial activity against Leishmania infantum MHOM/BR/1972/BH46 amastigotes assessed as reduction in cell viability measured for 48 hrs by PI staining based flow cytometry analysis. In kind it is functional, organism-based. Conditions: MHOM/BR/1972/BH46, 48 h.
In series [6] the test system is Leishmania donovani. The series is described as follows: Antileishmanial activity against Leishmania donovani promastigotes assessed as inhibition of parasite growth. The series is classed as functional, organism-based.
For series [7], the system named is Leishmania major. Briefly: Antileishmanial activity against Leishmania major assessed as reduction in parasite growth. The series is classed as functional, organism-based.
The test system of series [8] is Leishmania amazonensis. The series is described as follows: Antileishmanial activity against Leishmania amazonensis promastigotes assessed as inhibition of parasite growth. In kind it is functional. The arrangement: scale not given: the % may be the effect or the level left.
For series [9], the system named is Leishmania amazonensis. Briefly: Antileishmanial activity against Leishmania amazonensis IFLA/BR/1967/PH8 amastigotes infected in murine peritoneal macrophages incubated for 24 hrs by Giemsa staining based analysis. The series is classed as functional, organism-based. Particulars: IFLA/BR/1967/PH8, 24 h.
For series [10], the system named is Leishmania donovani. The series is described as follows: Antileishmanial activity against Leishmania donovani amastigotes infected in J774.A1 macrophage assessed as inhibition of parasite growth by luciferase assay. In kind it is functional, organism-based.
For series [11], the system named is Leishmania donovani. The series is described as follows: Antileishmanial activity against Leishmania donovani amastigotes infected in human THP-1 cells assessed as inhibition of parasite infection incubated for 72 hrs by DAPI staining based assay. The series is classed as functional, organism-based. Conditions: THP-1, 72 h.
The test system of series [12] is Leishmania donovani. Briefly: Antileishmanial activity against Leishmania donovani promastigotes assessed as parasitic proliferation inhibition incubated for 3 days by resazurin dye based assay. Conditions: Leishmania donovani, 72 h; read-out: IC50. In kind it is functional, organism-based. For orientation: The colour change of resazurin is a common sign of viable cells or microbes.

Series [13] deals with Leishmania major. The series is described as follows: Antileishmanial activity against Leishmania major promastigotes assessed as reduction in parasite viability measured after 72 hrs by Giemsa-staining based microscopic analysis. The series is classed as functional, organism-based.
The test system of series [14] is Leishmania infantum. The series is described as follows: Antileishmanial activity against Leishmania infantum MON-1 promastigotes assessed as reduction in parasite viability measured after 48 hrs by MTT assay. In kind it is functional, organism-based. Particulars: MON-1, 48 h.
Series [15] has as its system Leishmania major. Briefly: Antileishmanial activity against Leishmania major amastigotes assessed as reduction in parasite growth incubated for 48 hrs by resazurin dye based analysis. The series is classed as functional, organism-based.
The subject of series [16] is Leishmania donovani. Briefly: Antileishmanial activity against Leishmania donovani promastigotes assessed as parasite growth inhibition incubated for 72 hrs by alamar blue staining based assay. In kind it is functional, organism-based.
For series [17], the system named is Leishmania donovani. Briefly: Antileishmanial activity against Leishmania donovani MHOM/SD/62/1S assessed as inhibition of parasite growth by resazurin/alamar blue fluorometric assay. The series is classed as functional, organism-based.
The test system of series [18] is Leishmania donovani. Briefly: Antileishmanial activity against Leishmania donovani 9515 promastigotes assessed as inhibition of parasite growth incubated for 48 hrs by resazurin dye based assay. In kind it is functional, organism-based. Conditions: Leishmania donovani, 9515, 48 h.
In series [19] the test system is Leishmania major. The series is described as follows: Antileishmanial activity against Leishmania major IR-173 promastigotes assessed as inhibition of parasite growth incubated for 48 hrs by resazurin dye based assay. In kind it is functional, organism-based. Conditions: IR-173, 48 h.
Series [20] deals with HepG2. The series is described as follows: Antiproliferative activity against human HepG2 cells assessed as reduction in cell viability incubated for 72 hrs by MTT assay. In kind it is functional, cell-based. Conditions: HepG2, 72 h.

The term IC50 denotes the concentration needed to halve the response being measured. Consider `NC(=O)[C@@H]1CSC(c2cn(-c3ccccc3)nc2-c2ccccc2)N1` (stereo partly specified), for which the concentration for half-maximal inhibition (IC50) in the series on Leishmania aethiopica was 1.02 µg/mL (≈ 2.91 µM).

Consider `Cc1ccc(-n2cc(C3=NCCS3)c(-c3ccccc3)n2)cc1`, for which, in the series on Leishmania aethiopica, the IC50 amounted to 1.02 µg/mL (≈ 3.19 µM). A word on the CC50: it is the concentration giving 50% cytotoxicity. In the case of `C(=N/CCCN(c1cccnc1)c1cccnc1)/c1cc(-c2ccccc2)c2ccc3c(-c4ccccc4)cc(/C=N/CCCN(c4cccnc4)c4cccnc4)nc3c2n1`, the IC50 with Leishmania donovani [1] was found to be 2.52 µM. Moreover, the 50% cytotoxic concentration (CC50) in the series with HepG2 [2] worked out at 1.64 µM.

As for `COc1cc(/C=C/C(=O)c2ccccc2Cl)ccc1OCC=C(C)C`, the IC50 in the series on Leishmania mexicana was 8.04 µM. For the molecule `Cc1cc(OCCCCNC(C)(C)C)cc2oc3cc(OCCCCNC(C)(C)C)cc(O)c3c(=O)c12`, the values for the half-inhibitory concentration (IC50) (in the series with Leishmania braziliensis; in series [3]) were 0.1 µM and 15.5 µM, respectively. Turning to `CCCc1cc(OC)c2oc(=O)c(C(=O)c3ccc([N+](=O)[O-])cc3)cc2c1`, the IC50 is 12 µM in the series on Leishmania infantum [4] and 6.8 µM in the series with Leishmania infantum [5]. In the case of `Cc1cc(O)c(C(=O)Nc2ccc(Br)cc2)c(=O)n1C1CC1`, the IC50 in the series with Leishmania donovani [6] is 55 µM. With `CCCCCCCCCn1cc(CN2CCN(C(=O)c3c(C)nc4ccc(C)cn34)CC2)nn1`, the IC50 in the series on Leishmania major [7] stood at 15.1 µM. As to `COc1cc(C(=O)/C=C/c2cccc([N+](=O)[O-])c2)ccc1OCC=C(C)C`, the IC50 in the series with Leishmania mexicana amounted to 4.57 µM. As to `C/C=C1\NC(=S)NC1=O`, the Activity in the series with Leishmania amazonensis [8] was 28%. In the series with Leishmania amazonensis [9], `O=C(CC[Se]c1ccnc2cc(Cl)ccc12)Nc1ccc([N+](=O)[O-])cc1` gave an IC50 of 5.67 µM.

As for `O=C1NC(=S)N2CCCC12` (stereo unspecified), the Activity with Leishmania amazonensis [8] came out at 20%.

Regarding `CCCn1c(C)cc(O)c(C(=O)Nc2ccc(Br)cc2)c1=O`, the IC50 in the series with Leishmania donovani [6] was found to be 55 µM. As for `CC(=O)N1N=C(c2ccccc2)CC1c1cn(-c2ccc(C)cc2)nc1-c1ccccc1` (stereo unspecified), the half-inhibitory concentration (IC50) in the series with Leishmania donovani [10] came to 0.05 µM; in the series with Leishmania donovani [11] it was 1 µM. For `CCCC(=O)N1N=C(c2ccccc2)CC1c1cn(-c2ccc(Cl)cc2)nc1-c1ccccc1` (stereo unspecified), the IC50 with Leishmania donovani [10] came to 0.89 µM; in the series on Leishmania donovani [11], 1.45 µM. As for `CCOC(=O)C1=CNC(=S)NC1c1ccc(Cl)cc1` (stereo unspecified), in the series with Leishmania donovani [12], the IC50 was 29.3 µg/mL (≈ 98.7 µM). By EC50 is commonly meant the concentration at which the effect is half-maximal. For `COC(=O)C1=C(C)NC(=S)NC1c1ccc(Cl)cc1` (stereo unspecified), in the series with Leishmania major [13], the EC50 came out at 15.5 µM.

On to `CCOC(=O)c1cc2c([nH]c3ccccc32)c(-c2ccccn2)n1`, for which the EC50 in the series on Leishmania infantum [14] was more than 29.8 µM. `CC(C)(C)c1ccc(COc2ccc(C(=O)N/N=C\c3ccc([N+](=O)[O-])o3)cc2)cc1`: the IC50 in the series with Leishmania major [15] came to 0.19 µM. With `C(=N/CCCN(c1ccncc1)c1ccncc1)/c1cc(-c2ccccc2)c2ccc3c(-c4ccccc4)cc(/C=N/CCCN(c4ccncc4)c4ccncc4)nc3c2n1`, the half-inhibitory concentration (IC50) in the series on Leishmania donovani [1] was found to be 2.52 µM. Moreover, in the series on HepG2 [2], the CC50 came to 1.64 µM.

Regarding `CCOC(=O)C1=CNC(=O)NC1c1ccc(C)cc1` (stereo in doubt; 80), the IC50 in the series on Leishmania donovani [12] is 29.3 µg/mL (≈ 113 µM).

Regarding `COc1cc(C(=O)/C=C/c2ccc([N+](=O)[O-])cc2)ccc1OCC=C(C)C`, it took 8.22 µM to reach half-maximal inhibition with Leishmania mexicana (IC50). As for `Cc1nc2ccc(Cl)cn2c1C(=O)N1CCN(Cc2cn(-c3ccc(Br)cc3)nn2)CC1`, the IC50 in the series on Leishmania major [7] stood at 15.1 µM. `COc1ccc2nc(C(=O)NCCCN(C)C)ccc2c1`: the IC50 in the series on Leishmania donovani [16] was 8 µM. Take `CC(C)c1ccc(COc2ccc(C(=O)N/N=C\c3ccc([N+](=O)[O-])o3)cc2)cc1`: the IC50 with Leishmania major [15] stood at 0.62 µM. In the case of `O=C(N/N=C/c1ccc([N+](=O)[O-])o1)c1ccc(OCc2ccc(F)cc2)cc1`, the IC50 with Leishmania donovani [17] turned out to be 0.23 µM; with Leishmania donovani [18], 0.86 µM; in the series on Leishmania major [19] it was 0.28 µM. Turning to `Cc1ccc(-n2cc(C3N[C@H](C(N)=O)CS3)c(-c3ccccc3)n2)cc1` (stereo partly specified), in the series with Leishmania aethiopica, the IC50 was determined as 1.02 µg/mL (≈ 2.8 µM).

With `Cc1nc2c3ccccc3c3ccccc3n2c1C(=O)NCc1cn(-c2cccc([N+](=O)[O-])c2)nn1`, in the series with HepG2 [20], the EC50 is less than 30 µM.
